Counter-ions that a name gives are not always drawn.
| Compound | melting point |
| --- | --- |
| C[C@@H]1CCCN1CCc1ccc2cc(-c3cccnc3)ccc2n1 (as salt: hydrochloride) [Example 51, 2-{2-[(2R)-2-methyl-1-pyrrolidinyl]ethyl}-6-(3-pyridinyl)quinoline] | 205 to 207 °C |
| COc1ccc(-c2ccc3nc(CCN4CCC[C@H]4C)ccc3c2)cc1 (as salt: hydrochloride) [Example 46, 6-(4-methoxyphenyl)-2-{2-[(2R)-2-methyl-1-pyrrolidinyl]ethyl}quinoline] | 165 °C (dec.) |
| C[C@@H]1CCCN1CCc1ccc2cc(-c3ccc(C(F)(F)F)cc3)ccc2n1 (as salt: hydrochloride) [Example 47, 2-{2-[(2R)-2-methyl-1-pyrrolidinyl]ethyl}-6-[4-(trifluoromethyl)phenyl]quinoline] | 143 to 145 °C (dec.) |
| C[C@@H]1CCCN1CCc1ccc2cc(Br)ccc2c1 (as salt: HCl) [Example 2, (2R)-1-[2-(6-bromo-2-naphthyl)ethyl]-2-methylpyrrolidine] | 247.3 to 250.7 °C |

Results, then the molecule that gave them:

| melting point | Compound |
| --- | --- |
| 145 °C | C[C@@H]1CCCN1CCc1ccc2cc(-c3ccc(F)cc3)ccc2n1 (as salt: hydrochloride) [Example 43, 6-(4-fluorophenyl)-2-{2-[(2R)-2-methyl-1-pyrrolidinyl]ethyl}quinoline] |
| 162 to 164 °C (dec.) | C[C@@H]1CCCN1CCc1ccc2cc(C(=O)c3cccc(F)c3)ccc2n1 (as salt: hydrochloride) [Example 50, (3-fluorophenyl)(2-{2-[(2R)-2-methyl-1-pyrrolidinyl]ethyl}-6-quinolinyl)methanone] |
| 164 °C | C[C@@H]1CCCN1CCc1ccc2cc(-c3ccc(C#N)cc3)ccc2n1 (as salt: tartrate) [Example 42, 4-(2-{2-[(2R)-2-methyl-1-pyrrolidinyl]ethyl}-6-quinolinyl)benzonitrile] |
| 228.5 to 231.6 °C | C[C@@H]1CCCN1CCc1ccc2cc(-c3cccc(C#N)c3)ccc2c1 [Example 7, 3-(6-{2-[(2R)-2-methyl-1-pyrrolidinyl]ethyl}-2-naphthyl)benzonitrile] |
| 212.6 to 213.6 °C | C[C@@H]1CCCN1Cc1ccc2cc(-c3ccc(C#N)cc3)ccc2c1 (as salt: hydrochloride) [Example 6, 4-(6-{[(2R)-2-methyl-1-pyrrolidinyl]methyl}-2-naphthyl)benzonitrile] |
